Measured values published in publication PMC9756341 (Journal of the American Chemical Society, 2022).
“And” between values parts separate entries of the source, which are not always exact repeats. Identical values can stand only once.

What was measured:
[1] = target: T1, tissue plasminogen activator (tPA) (Homo sapiens, UniProt P00750); test: Enzyme kinetics to calculate kobs/I, tPA; type: biochemical; details: ratio of kobs/I
T1 construct: purchased BioTechne 7449-SE
Protocol: (§1) Reagents were obtained from VWR, Sigma Aldrich, Sartorius, Fluorochem, AGTC, Novabiochem, TCI, Alfa Aesar, Iris Biotech, Thermofisher and Bachem. […]
(§2) (Code 7449-SE) and KLK8 (Code 2025-SE) were obtained from BioTechne. KLK6 was obtained from the group of Aubry Miller (DKFZ) and KLK7 was obtained from the group of Judith Clements (QUT).
(§3) The manufacturer’s recommended buffers were used with uPA and tPA but not KLK8. The KLK6 assay buffer was as follows: 50 mM Tris 150 mM NaCl, 1 mM EDTA, 0.05% Tween20, pH 7.5. The KLK7/8 buffer was as follows: 100 mM Na2PO4, 0.01% Tween20, pH 8.5. Fluorescence measurements were measured using an Envision plate reader. Fluorescence data was processed using Graphpad Prism 8. […]
(§4) 2-chlorotrityl chloride resin. […]

[2] = system: endogenous active KLK6; details: Capan-2 conditioned media, streptavidin pulldown, KLK6 western blot
Protocol: Conditioned media was incubated with bABP 17 (10 μM) or DMSO for 2 h, and labeled proteins enriched on magnetic streptavidin-loaded beads, eluted, and analyzed by western blot against a KLK6 antibody.
Cell culture. Cells were cultured in their recommended culture media supplemented with 10% (v/v)
foetal bovine serum at 37 °C and 5% CO2.
Preparation of conditioned media. Cells were grown in standard growth media to 80% confluency in
a T175 flask. The medium was removed, and the cells were washed with serum-free, phenol-red free
RPMI. The cells were incubated with the same RPMI for 2 h. The medium was replaced once again
with serum-free, phenol-red free RPMI and the cells were incubated for 48 h. The condition medium
was collected and filtered through a 0.2 µm syringe filter. The medium was concentrated (25 mL to
0.75 mL) using a 3 kDa Mw cutoff spin filter to a final concentration of around 1 mg/mL. The protein
concentration was measured using a BioRad DCTM protein assay.
Pulldown experiments (western blot). Conditioned media was diluted with PBS to exactly 1 mg/mL.
200 µg of total protein was used per condition. The ABP or DMSO was added at a 1:100 dilution and
the samples were shaken at RT for 1 h. The proteins were precipitated using the MeOH/H2O/CHCl3
method. The pellet was washed twice with MeOH and dried in air for 5 min. The protein was
resuspended in 2% SDS in PBS to a concentration of 10 mg/mL. PBS was added to gradually dilute
the protein back to 1 mg/mL and the samples were centrifuged (17,000 g, 5 min). 5 µg of protein was
set aside as the “before pulldown” samples. Magnetic streptavidin beads were washed three times with
PBS. The rest of the protein was added into the beads and shaken at RT for 2 h. 5 µg of the supernatant
was set aside for analysis, while the rest was discarded. The beads were washed three times with 1%
SDS in PBS. […]
were boiled at 95 °C for 5 min. The proteins were analysed via SDS-PAGE and western blot analysis. […]
10 min, followed by 180 V for 60 min. Gels were then taken for western blot or in-gel fluorescence. […]

[3] = system: recombinant tPA, uPA, or KLK6; details: 2 h incubation, then fABP 21 for 1 h, in-gel fluorescence
[4] = system: intracellular proteases of Capan-2 cells; details: live Capan-2 cells or cell lysate, 2 h, NeutrAvidin-HRP blot
Protocol: S12. Probe treatment in live Capan-2 cells and cell lysate
Figure S12. Capan-2 cells were grown to 80% confluency, followed by the addition of bABP 17 or FP-biotin for 2 h. Cells were lysed, boiled with Laemmli buffer and analysed using a NeutrAivdin-HRP western blot (in cell blot). Standard Capan-2 lysate was also treated with the same amounts of bABP 17 and FP-biotin, followed by the same analysis (in lysate blot).
(1 picture or pasted object on this page, not shown here)

[5] = system: Capan-2 conditioned media proteome; details: 2 μM, 1 h, NeutrAvidin enrichment, LC–MS/MS, triplicate
Protocol: Pulldown experiments (LC-MS/MS) Conditioned media was diluted with PBS to exactly 1 mg/mL.
300 µg of total protein was used per replicate. Each condition was performed in triplicate. The inhibitor
or DMSO control (1:100 dilution) was incubated with the media at RT for 2 h with a gentle agitation.
for 1 h. The proteins were precipitated using the MeOH/H2O/CHCl3 method. The pellet was washed
twice with MeOH and dried in air for 5 min. The proteins were resuspended in 2% SDS, 50 mM HEPES
in H2O (pH 8) to a concentration of 10 mg/mL. 50 mM HEPES was added to gradually dilute the protein
back to 1 mg/mL and the samples were centrifuged (17,000 g, 5 min). A 1:1 mixture of NeutrAvidin
agarose resin (15 µL per 300 µg protein) and control agarose resin (15 µL per 300 µg protein) was
prepared and washed with 0.2% SDS, 50 mM HEPES. The test samples were added into the resin and
the mixture was shaken at RT for 2 h. The supernatant was removed, and the beads were washed with
3 × 0.2% SDS, 50 mM HEPES and 3 × 50 mM HEPES. The beads were resuspended in 50 mM HEPES
(50 µL). TCEP was added to a final concentration of 5 mM (1:20 dilution). Chloroacetamide was added
to a final concentration of 10 mM (1:20 dilution). The mixture was shaken at RT for 30 min. To digest
the peptides off the resin, 0.5 µL of trypsin (0.2 mg/mL stock) was added into each sample and the
samples were shaken at 37 °C overnight. […]

[6] = system: BxPC-3 cells; details: BxPC-3 cells (no active KLK6), 2 μM, 24 h, relative to DMSO
Protocol: (§5) Next, the effect of KLK6 inhibition on migration and invasion of Capan-2 cells was assessed using a Boyden chamber assay.
(§6) (13 µL per condition). Control conditions included puromycin (100 µg/mL), DMSO only, Sytox green only or DMSO + Sytox green. The final inhibitor concentrations ranged from 2 µM to 125 nM. The cells were placed into an Incucyte with the incubator set at 37 °C and 5% CO2. Phase and green fluorescence were analysed every 4 h for 5 days.
(§7) Invasion/migration assays. Cell invasion was measured using Corning Fluoroblok inserts following a modified procedure11. Fluoroblok inserts were placed into the wells of a 24-well plate. Matrigel was suspended to 300 µg/mL in coating buffer (0.01M Tris, 0.7% NaCl, pH 8). The matrigel suspension (100 µL) was added into the Fluoroblok insert and the plate was left at 37 °C for 2 h. A migration control (with no matrigel) was also included. Cells were trypsinised and resuspended in serum-free DMEM.
(§8) The leftover buffer in the chambers was decanted and 500 µL of cells (100,000 per well) were seeded into the apical chamber of the insert. DMEM with 10% FBS (750 µL) was added into the basal chamber as a chemoattractant. The plate was incubated at 37 °C and 5% CO2 for 24 h. The chambers were removed and placed into a new 24-well plate containing 50 µM of CellTracker CMHC dye in HBSS. The cells were stained for 0.5 h and the chamber was removed and placed into the previous plate containing DMEM with 10% FBS. The cells were imaged for blue fluorescence (ex/em = 375/460) using a Celena S inverted fluorescence microscope. Percentage invasion was calculated by quantifying the cell area

[7] = system: Capan-2 cells; details: Capan-2 cells (active KLK6), 2 μM, 24 h, relative to DMSO
Protocol: as §5, §6, §7, §8

[8] = target: T2, KLK7 (Homo sapiens, UniProt P49862); test: Enzyme kinetics to calculate kobs/I, KLK7; type: biochemical
T2 construct: gift from the group of Judith Clements (QUT)
T2 sequence (P49862 30-253): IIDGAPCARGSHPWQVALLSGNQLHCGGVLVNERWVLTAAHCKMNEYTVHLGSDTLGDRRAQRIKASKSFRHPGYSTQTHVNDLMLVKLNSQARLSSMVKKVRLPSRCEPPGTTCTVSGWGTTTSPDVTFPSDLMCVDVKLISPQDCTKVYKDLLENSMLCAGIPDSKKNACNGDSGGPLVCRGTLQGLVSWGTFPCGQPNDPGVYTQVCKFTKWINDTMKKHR
Protocol: as §1, §2, §3, §4

[9] = target: T3, KLK8 (Homo sapiens, UniProt O60259); test: Enzyme kinetics to calculate kobs/I, KLK8; type: biochemical
T3 construct: Active recombinant FGFBP1 (Code 1593-FB), HSPG2 (Code 2364-ER), uPA (Code 1310-SE), tPA (Code 7449-SE) and KLK8 (Code 2025-SE) were obtained from BioTechne; purchased BioTechne 2025-SE
T3 sequence (O60259 33-260): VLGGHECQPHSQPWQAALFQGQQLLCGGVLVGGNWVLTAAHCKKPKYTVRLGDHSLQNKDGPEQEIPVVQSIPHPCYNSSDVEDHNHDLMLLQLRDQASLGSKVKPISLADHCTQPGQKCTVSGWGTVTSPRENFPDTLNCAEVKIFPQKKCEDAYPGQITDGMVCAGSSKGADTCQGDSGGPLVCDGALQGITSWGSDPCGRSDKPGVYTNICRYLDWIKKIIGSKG

[10] = system: Capan-2 cells; details: 0.13 to 2 μM, Incucyte live cell imaging every 4 h for 5 days, serum-free DMEM
Protocol: Incucyte assays for proliferation and toxicity
Proliferation was quantified using the Incucyte software by measuring percentage confluency. Sytox
green was used as a marker for cell death. Cell death was quantified by measuring total green
fluorescence of each well.
Incucyte (proliferation and toxicity) assays. Capan-2 cells were seeded in a sterile 96 well plate
(10,000 cells per well). The outermost wells were left empty to mitigate edge effects. Cells were grown
in growth media (10% FBS) overnight to adhere. The next day, the media was replaced with serum-free
DMEM (117 µL) containing Sytox green (250 nM) or a DMSO control.

[11] = target: T4, urokinase plasminogen activator (uPA) (Homo sapiens, UniProt P00749); test: Enzyme kinetics to calculate kobs/I, uPA; type: biochemical; details: ratio of kobs/I
T4 construct: purchased BioTechne 1310-SE
Protocol: as §1, §2, §3, §4

[12] = system: KLK6; test: Enzyme kinetics to calculate kobs/I, KLK6; type: biochemical, human; details: KLK6 1.5 nM, fluorogenic substrate 22 5 µM, 50 mM Tris 150 mM NaCl 1 mM EDTA 0.05% Tween20 pH 7.5, room temperature, read every 30 s for 30 min, ex/em 380/440 nm, pseudo first order kinetics, corrected by (1 + [S]/KM), triplicates
[13] = Fluoroblok insert without Matrigel
[14] = Matrigel-coated Fluoroblok insert

T1 sequence (P00750 36-562): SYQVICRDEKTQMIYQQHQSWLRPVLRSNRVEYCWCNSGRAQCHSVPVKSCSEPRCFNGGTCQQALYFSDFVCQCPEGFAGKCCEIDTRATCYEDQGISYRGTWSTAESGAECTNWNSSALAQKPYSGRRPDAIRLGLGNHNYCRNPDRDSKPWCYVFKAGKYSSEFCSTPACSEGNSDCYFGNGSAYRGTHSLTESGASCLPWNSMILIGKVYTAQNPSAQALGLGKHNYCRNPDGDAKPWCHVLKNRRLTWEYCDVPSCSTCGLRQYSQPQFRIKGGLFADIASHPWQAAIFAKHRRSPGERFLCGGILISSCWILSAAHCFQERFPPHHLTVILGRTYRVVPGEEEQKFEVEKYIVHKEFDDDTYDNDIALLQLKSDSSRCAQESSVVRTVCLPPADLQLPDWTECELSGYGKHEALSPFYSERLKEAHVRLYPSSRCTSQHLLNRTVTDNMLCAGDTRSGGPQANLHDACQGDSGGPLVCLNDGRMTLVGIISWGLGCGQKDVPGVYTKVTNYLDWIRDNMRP

Substance: biotin–Ahx–DPhe–Ser(Z)–Dht–ArgPP [compound 17, optimized biotinylated KLK6 ABP]
- selectivity for KLK6 over tPA [1]: > 600 fold
- labeling of endogenous KLK6 [2]: efficiently labels endogenous active KLK6
- lowest probe concentration detecting active KLK6 ([2]; dose-dependent): 50 nM
- inhibition of recombinant KLK6 versus tPA and uPA [3]: selectively inhibit KLK6 over the two off-targets
- labeling of intracellular proteases [4]: did not label any intracellular protease
- proteases labeled/enriched over DMSO control [5]: KLK6, along with two off-targets, uPA and tPA
- effect on migration [6, 13]: no effect
- effect on invasion [6, 14]: no effect
- effect on migration [7, 13]: reduced
- effect on invasion [7, 14]: reduced
- KLK7 kobs/I ([8]; KLK7 34 nM, substrate 24 5 µM, 100 mM Na2PO4 0.01% Tween20 pH 8.5, room temperature, 30 min, pseudo first order kinetics, triplicates): 350 M⁻¹ s⁻¹ and 350 ± 90 M⁻¹ s⁻¹
- selectivity for KLK6 over KLK7 ([8]; ratio of kobs/I): > 30 fold
- KLK8 kobs/I ([9]; KLK8 1 nM, Boc-VPR-AMC 30 µM, 100 mM Na2PO4 0.01% Tween20 pH 8.5, room temperature, 30 min, pseudo first order kinetics, triplicates): 140 M^–1 s^–1 and 140 ± 5 M^–1 s^–1
- selectivity for KLK6 over KLK8 ([9]; ratio of kobs/I): > 70 fold
- effect on proliferation (percentage confluency) [10]: no effect
- selectivity for KLK6 over uPA [11]: > 600 fold
- KLK6 kobs/I [12]: 11000 M^–1 s^–1 and 11000 ± 300 M^–1 s^–1
- KLK6 kobs/I ([12]; listed as IMP-2352): 11,000 M^–1 s^–1
